# Results reported in PubChem BioAssay (NCI).
#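 Cells were grown in 96-well plates and exposed to each compound for 48 hours at five concentrations; endpoints were interpolated linearly between bracketing concentrations, or set to the highest concentration if not reached. At the TGI there is no net growth.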
# Assays:
# Assay in all cases: inhibition of tumour cell growth, NCI panel, 48 h
# [1] = system: A549 NSCLC
# [2] = system: ACHN renal
# [3] = system: CAKI-1 renal
# [4] = system: COLO 205 colon
# [5] = system: DLD-1 colon
# [6] = system: DMS 273 small cell lung
# [7] = system: HCC-2998 colon
# [8] = system: HCT-15 colon
# [9] = system: HOP-18 NSCLC
# [10] = system: HOP-62 NSCLC
# [11] = system: HT29 colon
# [12] = system: IGROV1 ovarian
# [13] = system: K-562 leukemia
# [14] = system: KM12 colon
# [15] = system: KM20L2 colon
# [16] = system: LOX IMVI melanoma
# [17] = system: LXFL 529 NSCLC
# [18] = system: M14 melanoma
# [19] = system: M19-MEL melanoma
# [20] = system: MALME-3M melanoma
# [21] = system: MOLT-4 leukemia
# [22] = system: NCI-H226 lung
# [23] = system: NCI-H23 lung
# [24] = system: NCI-H460 lung
# [25] = system: NCI-H522 lung
# [26] = system: OVCAR-3 ovarian
# [27] = system: OVCAR-4 ovarian
# [28] = system: OVCAR-5 ovarian
# [29] = system: OVCAR-8 ovarian
# [30] = system: RPMI-8226 leukemia
# [31] = system: RXF 393 renal
# [32] = system: SF-268 CNS
# [33] = system: SF-295 CNS
# [34] = system: SF-539 CNS
# [35] = system: SK-MEL-2 melanoma
# [36] = system: SK-MEL-28 melanoma
# [37] = system: SK-MEL-5 melanoma
# [38] = system: SN12C renal
# [39] = system: SNB-19 CNS
# [40] = system: SNB-75 CNS
# [41] = system: SR leukemia
# [42] = system: SW-620 colon
# [43] = system: TK-10 renal
# [44] = system: U251 CNS
# [45] = system: UACC-257 melanoma
# [46] = system: UACC-62 melanoma
# [47] = system: UO-31 renal
# [48] = system: XF 498 CNS
# [49] = system: 786-0 renal
# [50] = system: A498 renal
# [51] = system: CCRF-CEM leukemia
# [52] = system: DMS 114 small cell lung
# [53] = system: EKVX NSCLC
# [54] = system: HCT-116 colon
# [55] = system: HL-60(TB) leukemia
# [56] = system: HOP-92 NSCLC
# [57] = system: SK-OV-3 ovarian
# [58] = system: SNB-78 CNS
structure (smiles),measurement,setting,value
CCCCCCCCCCCCCC(=O)OC1C(O)C(CO)OC(OC)C1NC(=O)N(CCCl)N=O (configuration not stated),TGI,[1],> 100 µM
same,TGI,[2],> 100 µM
same,TGI,[3],> 100 µM
same,TGI,[4],> 100 µM
same,TGI,[5],> 100 µM
same,TGI,[6],> 100 µM
same,TGI,[7],> 100 µM
same,TGI,[8],> 100 µM
same,TGI,[9],> 100 µM
same,TGI,[10],> 100 µM
same,TGI,[11],> 100 µM
same,TGI,[12],> 100 µM
same,TGI,[13],> 100 µM
same,TGI,[14],> 100 µM
same,TGI,[15],> 100 µM
same,TGI,[16],89.9 µM
same,TGI,[17],> 100 µM
same,TGI,[18],> 100 µM
same,TGI,[19],> 100 µM
same,TGI,[20],> 100 µM
same,TGI,[21],59.8 µM
same,TGI,[22],> 100 µM
same,TGI,[23],> 100 µM
same,TGI,[24],> 100 µM
same,TGI,[25],> 100 µM
same,TGI,[26],> 100 µM
same,TGI,[27],> 100 µM
same,TGI,[28],> 100 µM
same,TGI,[29],> 100 µM
same,TGI,[30],> 100 µM
same,TGI,[31],> 100 µM
same,TGI,[32],> 100 µM
same,TGI,[33],> 100 µM
same,TGI,[34],63.5 µM
same,TGI,[35],> 100 µM
same,TGI,[36],> 100 µM
same,TGI,[37],> 100 µM
same,TGI,[38],> 100 µM
same,TGI,[39],> 100 µM
same,TGI,[40],> 100 µM
same,TGI,[41],93.4 µM
same,TGI,[42],> 100 µM
same,TGI,[43],> 100 µM
same,TGI,[44],> 100 µM
same,TGI,[45],86.8 µM
same,TGI,[46],> 100 µM
same,TGI,[47],> 100 µM
same,TGI,[48],> 100 µM
C=CCSc1ncnc2c1ncn2C1OC(CO)C(O)C1O (configuration not stated),TGI,[49],> 100 µM
same,TGI,[50],> 100 µM
same,TGI,[1],> 100 µM
same,TGI,[2],> 100 µM
same,TGI,[3],> 100 µM
same,TGI,[51],> 100 µM
same,TGI,[4],> 100 µM
same,TGI,[5],> 100 µM
same,TGI,[52],70.4 µM
same,TGI,[6],> 100 µM
same,TGI,[53],> 100 µM
same,TGI,[7],> 100 µM
same,TGI,[54],> 100 µM
same,TGI,[8],> 100 µM
same,TGI,[55],> 100 µM
same,TGI,[9],> 100 µM
same,TGI,[10],> 100 µM
same,TGI,[56],> 100 µM
same,TGI,[11],> 100 µM
same,TGI,[12],> 100 µM
same,TGI,[13],> 100 µM
same,TGI,[14],> 100 µM
same,TGI,[15],> 100 µM
same,TGI,[16],> 100 µM
same,TGI,[18],> 100 µM
same,TGI,[19],> 100 µM
same,TGI,[20],> 100 µM
same,TGI,[21],> 100 µM
same,TGI,[22],> 100 µM
same,TGI,[23],> 100 µM
same,TGI,[24],> 100 µM
same,TGI,[25],> 100 µM
same,TGI,[26],> 100 µM
same,TGI,[27],> 100 µM
same,TGI,[28],> 100 µM
same,TGI,[29],18.5 µM
same,TGI,[30],> 100 µM
same,TGI,[32],> 100 µM
same,TGI,[33],> 100 µM
same,TGI,[34],> 100 µM
same,TGI,[35],> 100 µM
same,TGI,[36],> 100 µM
same,TGI,[37],> 100 µM
same,TGI,[57],> 100 µM
same,TGI,[38],> 100 µM
same,TGI,[39],> 100 µM
same,TGI,[40],> 100 µM
same,TGI,[58],> 100 µM
same,TGI,[41],> 100 µM
same,TGI,[42],> 100 µM
same,TGI,[43],> 100 µM
same,TGI,[44],> 100 µM
same,TGI,[45],> 100 µM
same,TGI,[46],> 100 µM
same,TGI,[47],> 100 µM
same,TGI,[48],> 100 µM
CC1CCC2(OCCO2)[C@]2(C)CC(O)C(=O)C=C12 (some centres not stated),TGI,[49],> 100 µM
same,TGI,[1],> 100 µM
same,TGI,[2],> 100 µM
same,TGI,[51],> 100 µM
same,TGI,[4],> 100 µM
same,TGI,[5],> 100 µM
same,TGI,[52],> 100 µM
same,TGI,[6],> 100 µM
same,TGI,[53],> 100 µM
same,TGI,[7],> 100 µM
same,TGI,[8],> 100 µM
same,TGI,[55],> 100 µM
same,TGI,[9],> 100 µM
same,TGI,[56],> 100 µM
same,TGI,[11],> 100 µM
same,TGI,[12],> 100 µM
same,TGI,[13],> 100 µM
same,TGI,[14],> 100 µM
same,TGI,[17],> 100 µM
same,TGI,[18],> 100 µM
same,TGI,[19],> 100 µM
same,TGI,[20],> 100 µM
same,TGI,[21],> 100 µM
same,TGI,[22],> 100 µM
same,TGI,[23],> 100 µM
same,TGI,[24],> 100 µM
same,TGI,[25],> 100 µM
same,TGI,[26],> 100 µM
same,TGI,[28],> 100 µM
same,TGI,[29],> 100 µM
same,TGI,[30],> 100 µM
same,TGI,[31],> 100 µM
same,TGI,[32],> 100 µM
same,TGI,[33],> 100 µM
same,TGI,[34],> 100 µM
same,TGI,[35],> 100 µM
same,TGI,[36],> 100 µM
same,TGI,[37],> 100 µM
same,TGI,[57],> 100 µM
same,TGI,[38],> 100 µM
same,TGI,[39],> 100 µM
same,TGI,[41],> 100 µM
same,TGI,[42],> 100 µM
same,TGI,[43],> 100 µM
same,TGI,[44],> 100 µM
same,TGI,[45],> 100 µM
same,TGI,[47],> 100 µM
same,TGI,[48],> 100 µM
